Assay results: patent US6482921B1, “Uridyl peptide antibiotic (UPA) derivatives, their synthesis and use” (Essential Therapeutics, Inc., priority 1999, dated 2002)
≈ marks a conversion by molar mass, not a printed value.

What was measured:
[1] = system: Pseudomonas aeruginosa PAM 1020; test: MIC broth microdilution, P. aeruginosa PAM 1020 (wild type); type: cell-based; settings: P. aeruginosa PAM 1020
[2] = system: Pseudomonas aeruginosa PAM 1154; test: MIC broth microdilution, P. aeruginosa PAM 1154 (OprM::Hg); type: cell-based; settings: P. aeruginosa PAM 1154 OprM::Hg
[3] = system: Pseudomonas aeruginosa PAM 1135; test: MIC broth microdilution, P. aeruginosa PAM 1135 (high level UPA resistance); type: cell-based; settings: P. aeruginosa PAM 1135 UPA1^r
[4] = system: Pseudomonas aeruginosa PAM 1323; test: MIC broth microdilution, P. aeruginosa PAM 1323 (medium level UPA resistance); type: cell-based
[5] = system: Escherichia Coli MC 4100; test: MIC broth microdilution, E. coli MC 4100 (wild type); type: cell-based; settings: E. coli MC 4100
[6] = system: Escherichia Coli MC 4100 AcrAB; test: MIC broth microdilution, E. coli MC 4100 AcrAB (ΔAcrAB); type: cell-based; settings: E. coli AcrAB
[7] = system: Escherichia Coli MC 4100 AcrAB UPA3r; test: MIC broth microdilution, E. coli MC 4100 AcrAB UPA3r (ΔAcrAB, UPA resistant); type: cell-based; settings: E. coli AcrAB UPA3^r
[8] = system: Staphylococcus aureus ATCC 29213; test: MIC broth microdilution, S. aureus ATCC 29213 (wild type); type: cell-based; settings: S. aureus ATCC 29213
[9] = system: Staphylococcus aureus 8325-4; test: MIC broth microdilution, S. aureus 8325-4 (wild type); type: cell-based; settings: S. aureus 8325-4
[10] = system: Pasteurella multocida pm002; test: MIC broth microdilution, P. multocida pm002 (wild type); type: cell-based
[11] = system: Mycobacterium tuberculosis H37Rv; test: MIC agar dilution, M. tuberculosis H37Rv; type: cell-based
[12] = system: Mycobacterium tuberculosis TN913; test: MIC agar dilution, M. tuberculosis TN913; type: cell-based
[13] = system: Mycobacterium fortuitum ATCC 6841; test: MIC broth microdilution, M. fortuitum ATCC 6841; settings: 72 hours at 35° C., CAMHB
[14] = system: Mycobacterium smegmatis ATCC 19420; test: MIC broth microdilution, M. smegmatis ATCC 19420; settings: 72 hours at 35° C., CAMHB

SMILES	MIC (μg/ml) Broth microdilution [1]	MIC (μg/ml) Broth microdilution [2]	MIC (μg/ml) Broth microdilution [3]	MIC (μg/ml) Broth microdilution [4]	MIC (μg/ml) Broth microdilution [5]	MIC (μg/ml) Broth microdilution [6]	MIC (μg/ml) Broth microdilution [7]	MIC (μg/ml) Broth microdilution [8]	MIC (μg/ml) Broth microdilution [9]	MIC (μg/ml) Broth microdilution [10]	MIC H37RV (SENSITIVE) [11]	MIC TN913 (SENSITIVE) [12]	MIC Broth microdilution M. fortuitum ATCC 6841 [13]	MIC Broth microdilution M. smegmatis ATCC19420 [14]
CC(N)C(=O)N(C)C(C)C(NC(=O)C(Cc1ccccc1)NC(=O)NC(Cc1ccc2ccccc2c1)C(=O)O)C(=O)NCC1CC(O)C(n2ccc(=O)[nH]c2=O)O1 [Compound 133, 1-[5′-[(2S,3S)-N^3-L-Alanyl-N^2-[N-[[(1S)-1-carboxy-2-naphthalenethyl]carbamoyl]-L-phenylalanyl]-N^3-methyl-2,3-diaminobutyramido]-3′,5′-dideoxy-α-L-arabinofuranosyl]uracil]	64 µg/mL (≈ 79.9 µM)	32 µg/mL (≈ 40 µM)	>512 µg/mL	>512 µg/mL	256 µg/mL (≈ 320 µM)	<1 µg/mL	32 µg/mL (≈ 40 µM)	256 µg/mL (≈ 320 µM)	128 µg/mL (≈ 160 µM)	256 µg/mL (≈ 320 µM)	30 µg/mL (≈ 37.5 µM)	30 µg/mL (≈ 37.5 µM)	32 µg/mL (≈ 40 µM)	8 µg/mL (≈ 9.99 µM)
CC(N)C(=O)N(C)C(C)C(NC(=O)C(Cc1ccc(-c2ccccc2)cc1)NC(=O)NC(Cc1c[nH]c2ccccc12)C(=O)O)C(=O)NCC1CC(O)C(n2ccc(=O)[nH]c2=O)O1 [Compound 155, 1-[5′-[(2S,3S)-N^3-L-Alanyl-N^2-[N-[[(1S)-1-carboxy-2-indol-3-ylethyl)carbamoyl]-L-4-biphenylalanyl]-N^3-methyl-2,3-diaminobutyramidol-3′,5′-dideoxy-α-L-arabinofuranosyl]uracil]	256 µg/mL (≈ 296 µM)	64 µg/mL (≈ 73.9 µM)	512 µg/mL (≈ 591 µM)	256 µg/mL (≈ 296 µM)	512 µg/mL (≈ 591 µM)	8 µg/mL (≈ 9.24 µM)	512 µg/mL (≈ 591 µM)	>512 µg/mL	512 µg/mL (≈ 591 µM)	32 µg/mL (≈ 37 µM)	10 µg/mL (≈ 11.5 µM)	10 µg/mL (≈ 11.5 µM)	32 µg/mL (≈ 37 µM)	4 µg/mL (≈ 4.62 µM)
CC(N)C(=O)N(C)C(C)C(NC(=O)C(Cc1ccccc1)NC(=O)NC(Cc1c[nH]c2ccccc12)C(=O)O)C(=O)NCC1CC(O)C(n2ccc(=O)[nH]c2=O)O1 [Compound 164, 1-[5′-[(2S,3S)-N^3-L-Alanyl-N^2-[N-[[(1S)-1-carboxy-2-indol-3-ylethyl]carbamoyl]-L-phenylalanyl]-N^3-methyl-2,3-diaminobutyramido]-3′,5′-dideoxy-α-L-arabinofuranosyl]uracil]	16 µg/mL (≈ 20.3 µM)	4 µg/mL (≈ 5.06 µM)	256 µg/mL (≈ 324 µM)	256 µg/mL (≈ 324 µM)	512 µg/mL (≈ 648 µM)	<1 µg/mL	64 µg/mL (≈ 81 µM)	256 µg/mL (≈ 324 µM)	128 µg/mL (≈ 162 µM)	128 µg/mL (≈ 162 µM)	10 µg/mL (≈ 12.7 µM)	10 µg/mL (≈ 12.7 µM)		
